Test results as given in patent US20080096894A1, “Anti-Bacterial Compounds” (ASTON UNIVERSITY, priority 2005, published 2008).

Tests used:
[1] = test system: Acinetobater spp.; experiment: activity against Acinetobacter spp.; type: cell-based; conditions: Gram-negative bacterium
[2] = test system: Propionibacterium acnes; experiment: MIC against Propionibacterium acnes, microtitre double dilution in BHI; type: cell-based
Protocol: Compounds 4PYcq and 4PYOfi were screened against one NCTC stain and seven clinical isolates of Propionibacterium acnes as described below.
Bacterial strains of Propionibacterium acnes, stored on beads at −20° C., were plated onto Brain heart infusion (BHI) agar plates. The cultures were incubated anaerobically for 4 days at 37° C.
Bacterial suspensions were prepared by diluting bacterial suspensions with BHI to obtain bacterial concentrations approximately 2×10^6 cfu/ml.
The test antimicrobial compounds were prepared by diluting the compound with appropriate nutrient broth to obtain correct stock solution. 50 μl of BHI were aliquoted onto the wells of the round-bottomed microtitre plate. 50 μl of the antimicrobial compounds were added onto the wells in the first column of the plate and several serial double dilutions were performed along the wells on each row. Following the series of double dilutions of the test compound the bacterial suspension were added onto each well except on the last column which served as a negative control. The lowest concentration of the test compound which inhibited bacterial growth was regarded as MIC of the compound.

[3] = test system: C. difficile (NCTC 11204 and thirty-two clinical isolates); experiment: Minimum Inhibitory Concentration (MIC) against C. difficile, microtiter plate, anaerobic, 48 hours; type: cell-based, Clostridium difficile
Protocol: (§1) Compounds 4PYcq and 4PYOfi were screened against one NCTC strain and thirty-two clinical isolates of Clostridium difficile as described below.
(§2) The antimicrobial compounds were prepared by adding 5.12 mg of each compound to 1 ml of DMSO. From each solution 100 μl was then aseptically transferred into 1 ml of sterile distilled water to give a concentration of 512 μg/ml. 100 μl of each diluted compound was then added to the first well of a sterile 96-well microliter plate. Serial dilutions were performed to give a concentration range spanning from 0 to 512 μg/ml of each compound. The microtiter plate containing the antimicrobials was left to equilibrate in an anaerobic cabinet for 3 hours before the addition of C. difficile cells. An overnight culture of C. difficile (NCTC 11204) was standardized to an OD^600 of 0.04 (approximately 10^6 CFU/ml), using Wilkins Chalgren broth and was vortexed for 60 seconds to ensure there was a uniform suspension. 100 μl of standardized culture was then added to each well of the microtiter plate, containing the equilibrated antimicrobials. The final concentrations of the antimicrobials in the wells therefore ranged from […] and the concentration of the culture was 10^5 CFU/ml in each well. The microtiter plate was incubated at 37° C., for 48 hours under anaerobic conditions. The MIC was determined as the lowest concentration of antimicrobial agent inhibiting the total growth of C. difficile cells. After incubation, the total solution from each well was aseptically spread onto a separate Wilkins chalgren agar plate. Plates were incubated for 48 hours, at 37° C., under anaerobic conditions. The number of colonies on each plate was counted after incubation and the MBC was determined as the lowest concentration of the antimicrobial agent at which 99.9% of organisms in the original inoculum were killed.

[4] = test system: C. difficile (NCTC 11204 and thirty-two clinical isolates); experiment: Minimum Bactericidal Concentration (MBC) against C. difficile, 99.9% kill; type: cell-based, Clostridium difficile
Protocol: as §1, §2

[5] = Clostridium difficile Isolate 1
[6] = Clostridium difficile Isolate 2
[7] = Clostridium difficile Isolate 3
[8] = Clostridium difficile Isolate 4
[9] = Clostridium difficile Isolate 5
[10] = Clostridium difficile Isolate 6
[11] = Clostridium difficile Isolate 7
[12] = Clostridium difficile Isolate 8
[13] = Clostridium difficile Isolate 9
[14] = Clostridium difficile Isolate 10
[15] = Clostridium difficile Isolate 11
[16] = Clostridium difficile Isolate 12
[17] = Clostridium difficile Isolate 13
[18] = Clostridium difficile Isolate 14
[19] = Clostridium difficile Isolate 15
[20] = Clostridium difficile Isolate 16
[21] = Clostridium difficile Isolate 17
[22] = Clostridium difficile Isolate 18
[23] = Clostridium difficile Isolate 19
[24] = Clostridium difficile Isolate 20
[25] = Clostridium difficile Isolate 21
[26] = Clostridium difficile Isolate 22
[27] = Clostridium difficile Isolate 23
[28] = Clostridium difficile Isolate 24
[29] = Clostridium difficile Isolate 25
[30] = Clostridium difficile Isolate 26
[31] = Clostridium difficile Isolate 27
[32] = Clostridium difficile Isolate 28
[33] = Clostridium difficile Isolate 29
[34] = Clostridium difficile Isolate 30
[35] = Clostridium difficile Isolate 31
[36] = Clostridium difficile Isolate 32
[37] = Clostridium difficile NCTC 11204

NC(=NN=Cc1ccc([N+](=O)[O-])o1)c1cc[n+]([O-])cc1 (mixture of isomers) [Compound 4PYOfi]
1 to 2 µg/mL: MIC [3, 21] | MIC [3, 22] | MBC [4, 22]
64 to 128 µg/mL: MIC [3, 8] | MIC [3, 17] | MBC [4, 8]
4 to 8 µg/mL: MIC [3, 6] | MIC [3, 26] | MIC [3, 28] | MIC [3, 33] | MIC [3, 35] | MIC [3, 36] | MBC [4, 15] | MBC [4, 16] | MBC [4, 18] | MBC [4, 20] | MBC [4, 24] | MBC [4, 26] | MBC [4, 28]
128 to 256 µg/mL: MIC [3, 13] | MBC [4, 13] | MBC [4, 17]
2 to 4 µg/mL: MIC [3, 9] | MIC [3, 12] | MIC [3, 15] | MIC [3, 16] | MIC [3, 18] | MIC [3, 19] | MIC [3, 20] | MIC [3, 24] | MIC [3, 27] | MIC [3, 29] | MIC [3, 30] | MIC [3, 37] | MBC [4, 9] | MBC [4, 21] | MBC [4, 27] | MBC [4, 30] | MBC [4, 37]
16 to 32 µg/mL: MIC ([2]; P. acnes Isolate 5) | MIC ([2]; P. acnes NCTC 737) | MIC [3, 5] | MIC [3, 10] | MIC [3, 25] | MIC [3, 31] | MIC [3, 32] | MIC [3, 34] | MBC [4, 6] | MBC [4, 10] | MBC [4, 23] | MBC [4, 25] | MBC [4, 31] | MBC [4, 32] | MBC [4, 34]
8 to 16 µg/mL: MIC ([2]; P. acnes Isolate 1) | MIC ([2]; P. acnes Isolate 2) | MIC ([2]; P. acnes Isolate 3) | MIC ([2]; P. acnes Isolate 4) | MIC ([2]; P. acnes Isolate 6) | MIC ([2]; P. acnes Isolate 7) | MIC [3, 7] | MIC [3, 23] | MBC [4, 7] | MBC [4, 12] | MBC [4, 19] | MBC [4, 29] | MBC [4, 33] | MBC [4, 35] | MBC [4, 36]
32 to 64 µg/mL: MIC [3, 11] | MIC [3, 14] | MBC [4, 5] | MBC [4, 11] | MBC [4, 14]
inactive: activity against Acinetobater spp. (in words) [1]
